System: MCF-7 cell line
Assay: Annexin V-FITC/PI apoptotic assay
Assay type: cell-based, human
Source text: Annexin V-fluorescein isothiocyanate (FITC) and counterstaining with propidium iodide (PI) using the Annexin V-FITC/PI apoptosis detection kit (BD Biosciences, San Diego, CA) were employed to distinguish early and late apoptotic cells according to the manufacturer's directions. Annexin V conjugated with fluorescein isothiocyanate was used to quantify the loss of phosphatidylserine asymmetry in cell membranes involved in apoptosis, and propidium iodide can distinguish between early apoptosis, late apoptotic, and necrotic cells. Analyses were achieved by using a FACSCalibur flow cytometer (BD Biosciences, San Jose, CA).
Cells were gently washed twice with PBS accompanied by tryptic digestion (0.25% trypsin/EDTA) and washed yet again with PBS. All the cells including the floating and adherent ones were harvested, pooled and stained with […] in 1× binding buffer for 15 min at room temperature in the dark. Analyses were achieved by FACS Calibur flow cytometer (BD Biosciences, San Jose, CA).

Compound: CCOC(=O)Cn1c(SCC(=O)Nc2ccc(C(=O)/C=C\c3cc(OC)c(OC)c(OC)c3)cc2)nc2sc3c(c2c1=O)CCN(C(=O)OCC)C3 [Compound 3b, Ethyl (Z)-3-(2-Ethoxy-2-oxoethyl)-4-oxo-2-((2-oxo-2-((4-(3-(3,4,5 trimethoxyphenyl)acryloyl)phenyl)amino)ethyl)thio)-3,5,6,8 tetra-hydropyrido[4′,3′:4,5]thieno[2,3-d]pyrimidine-7(4H)-carboxylate]
- total, early, and late apoptosis as well as necrosis relative to the control cells: significant increase

From article PMC8728392, “Synthesis, Anticancer Assessment, and Molecular Docking of Novel Chalcone-Thienopyrimidine Derivatives in HepG2 and MCF-7 Cell Lines” (Oxidative Medicine and Cellular Longevity, 2021)
